One assay deals with T1, LXR beta (Homo sapiens, UniProt P55055).
T1 construct: 5 μL of 4×LXR beta-LBD was added to each well (final concentration 5 nM); purchased Thermofisher PV4658
T1 sequence (P55055 222-460 limits assumed): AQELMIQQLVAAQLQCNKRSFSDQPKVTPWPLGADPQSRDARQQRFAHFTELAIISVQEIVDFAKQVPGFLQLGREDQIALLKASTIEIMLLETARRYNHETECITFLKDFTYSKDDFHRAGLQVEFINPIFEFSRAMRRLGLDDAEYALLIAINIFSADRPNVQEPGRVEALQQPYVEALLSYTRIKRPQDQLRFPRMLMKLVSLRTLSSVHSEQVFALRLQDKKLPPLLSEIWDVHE
The assay can be described thus: LXR beta agonist assay (Lanthascreen TR-FRET). The format is biochemical. To be noted: LXR beta-LBD 5 nM, read-out: LXR-β EC50. The gist of the method: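 TR-FRET coactivator recruitment: 5 nM LXR beta-LBD with 100 nM Fl-D22 peptide and 10 nM Tb-anti-GST antibody (final) in Coregulator Buffer G, 60 min at 22° C, read hourly up to 4 hours. Duplicate three-fold titrations from 30 μM; EC50 by variable-slope nonlinear regression.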
(In general: Time-resolved FRET reads energy transfer from a long-lived donor to a nearby acceptor.)

The subject of a further assay is A549. The assay is described as follows: Cell viability assay (resazurin) in A549. The settings on record: Homo sapiens, 96 hr exposure. In kind it is cell-based. The protocol: (§1) HepG2 (ATCC® HB-8065™), hepatocellular carcinoma, A549 (ATCC® CCL-185™), lung epithelial carcinoma, MCF7 (ATCC® HTB-22™), mammary gland epithelial carcinoma, MDA-MB-231 (ATCC® HTB-26™), TNBC, MiaPaCa-2 (ATCC® CRL-1420™) & Panc-1 (ATCC® CRL-1469™), pancreatic epithelial carcinoma, HCT116 (ATCC® CCL-247™), colon epithelial carcinoma and U87MG (ATCC® HTB-14™), brain epithelial carcinoma cell lines respectively were seeded in the respective medium (DMEM, Cat #10569044 with 10% FBS, Cat #16000044; Gibco for HepG2, A549, MCF7, MDA-MB-231, MiaPaCa-2, Panc-1, HCT116 and MEM, Cat #11095080 with 10% FBS for U87MG). Cells were allowed to grow at 37° C. for 24 hr in 5% CO2 (culture conditions) in a Nuaire incubator (humidified). Serially diluted compounds (100 μl) were added to the culture plate 24 hr later and the cultures were further incubated in culture conditions for 96 hr. Experiment was terminated at the completion of 96 hr exposure to the drug by replacing the medium with 100 μl of 1 mM of resazurin (R7017; Sigma) prepared in culture medium and the plates were further incubated in culture conditions for 4 hr. Fluorescence was then measured using a multimodal plate reader (Biotek Synergy Neo) at an excitation wavelength of 535 nm and emission wavelength of 590 nm to obtain relative fluorescence units. Data analysis was done by subtracting the background fluorescence (only medium blank) value from each reading and then normalizing with the vehicle control (DMSO treated cells) to obtain percent survival/proliferation. Percent survival at different doses was used to calculate IC50 by fitting the curve to the “four-parameter variable slope logistic model” using Prism Graph Pad.
For orientation: Resazurin is reduced to fluorescent resorufin, in cell work by metabolically active cells.

For a further assay, the system named is HCT116. The assay can be described thus: Cell viability assay (resazurin) in HCT116. The format is cell-based. To be noted: Homo sapiens, HCT-116; 96 hr exposure. The method, then:
as §1

The next assay relates to HepG2. The assay is described as follows: Cell viability assay (resazurin) in HepG2. In kind it is cell-based. The settings on record: Homo sapiens, 96 hr exposure. The protocol:
as §1

In the next assay the test system is MCF7. The assay can be described thus: Cell viability assay (resazurin) in MCF7. The format is cell-based. To be noted: Homo sapiens, 96 hr exposure. The protocol: as §1
The next assay concerns MDA-MB-231. The assay can be described thus: Cell viability assay (resazurin) in MDA-MB-231. In kind it is cell-based. To be noted: Homo sapiens, 96 hr exposure, read-out: MDA_MB-231 Cell IC50. The method, then:
as §1

For a further assay, the system named is THP1. The assay can be described thus: Cell viability assay in THP1. To be noted: Homo sapiens, THP-1. The format is cell-based.
A further assay deals with T2, LXR alpha (Homo sapiens, UniProt Q13133).
T2 construct: 5 μL of 4×LXR alpha-LBD was added to each well (final concentration 2.5 nM); purchased Thermofisher PV4655
T2 sequence (Q13133 209-447 limits assumed): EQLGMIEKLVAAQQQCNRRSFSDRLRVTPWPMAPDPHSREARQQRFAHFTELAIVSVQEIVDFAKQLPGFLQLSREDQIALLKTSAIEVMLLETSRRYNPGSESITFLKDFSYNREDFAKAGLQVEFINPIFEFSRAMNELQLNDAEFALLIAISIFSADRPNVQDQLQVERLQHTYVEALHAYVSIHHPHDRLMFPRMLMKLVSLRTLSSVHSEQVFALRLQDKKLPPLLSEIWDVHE
The assay can be described thus: LXR alpha agonist assay (Lanthascreen TR-FRET). The format is biochemical. The settings on record: LXR alpha-LBD 2.5 nM, read-out: LXR-α EC50. The protocol: EC50 values of compounds against LXR alpha were determined at Integral BioSciences (India) using Lanthascreen TR-FRET (Thermofisher, Cat #PV4655). Assay was performed in a 20 μL final volume in a Black 384-well plate (Corning, Cat #4511). Dose response curve for the compounds were prepared in duplicates with starting concentration at 30 μM and a three-fold titration was performed. The reaction buffer consisted of TR-FRET Coregulator Buffer H. To the compound dilution, 5 μL of 4×LXR alpha-LBD was added to each well (final concentration 2.5 nM). An equal volume (5 μL) containing 4×Fl-D22/Tb-anti GST antibody (final concentration 250 nM/10 nM) was added to initiate the enzyme reaction and the reaction was incubated for 60 min at 22° C. after which the plates were read using BioTek Plate reader for TR-FRET every hour up to 4 hours.
Analysis was done using the standard curve by non-linear regression, variable slope inhibitor curve fits (Graph-Pad Prism) and EC50's of compounds were determined wherever possible.

The EC50 is the concentration at which the effect is half-maximal. As a reminder, the IC50 is the concentration that gives 50% inhibition. Take `CN(C)C(=O)c1ccc(N[C@@H]2CCN(C3CCN(C(=O)[C@](O)(c4ccccc4)C(F)(F)F)CC3)C2)cc1Cl` [Compound 1.57, 2-chloro-N,N-dimethyl-4-((R)-1-(1-((R)-3,3,3-trifluoro-2-hydroxy-2-phenylpropanoyl)piperidin-4-yl)pyrrolidin-3-ylamino)benzamide]: the EC50 at LXR beta was 2.82 µM. Moreover, the IC50 in the assay with A549, in the assay on HCT116, in the assay with HepG2, in the assay with MCF7, in the assay with MDA-MB-231 and with THP1 was over 30 µM in each case.

As to `CN(C)C(=O)c1ccc(N[C@H]2CCCN(C3CCN(C(=O)[C@](O)(c4ccccc4)C(F)(F)F)CC3)C2)cc1Cl` [Compound 1.53, 2-chloro-N,N-dimethyl-4-((S)-1′-((R)-3,3,3-trifluoro-2-hydroxy-2-phenylpropanoyl)-1,4′-bipiperidin-3-ylamino)benzamide], on LXR beta, the EC50 turned out to be 16.9 µM. Further, the IC50 with A549, in the assay on HCT116, in the assay on HepG2, in the assay on MCF7, in the assay on MDA-MB-231 and in the assay on THP1 was over 30 µM in each case.

With `CN(C)C(=O)c1ccc(NC2CN(C3CCN(C(=O)C4(c5c(F)cccc5Cl)CCCC4)CC3)C2)cc1Cl` [Compound 1.56, 2-chloro-4-(1-(1-(1-(2-chloro-6-fluorophenyl)cyclopentanecarbonyl)piperidin-4-yl)azetidin-3-ylamino)-N,N-dimethylbenzamide], the IC50 came out at 12.4 µM in the assay on A549; 12.4 µM in the assay with HCT116; 12.9 µM with HepG2; 12.8 µM in the assay on MCF7; 13.8 µM in the assay with MDA-MB-231; 14.5 µM in the assay on THP1.

Turning to `CC(C)C(O)(C(=O)N1CCC2(CC1)CN(C1CCN(c3ccc(C(=O)N(C)C)c(Cl)c3)CC1)C2)C(F)(F)F` (centres unmarked) [Compound 1.54, 2-chloro-4-(4-(7-(2-hydroxy-3-methyl-2-(trifluoromethyl)butanoyl)-2,7-diazaspiro[3.5]nonan-2-yl)piperidin-1-yl)-N,N-dimethylbenzamide], the EC50 on LXR beta was over 30 µM. Also, the IC50 with A549, in the assay with HCT116, in the assay on HepG2, with MCF7, with MDA-MB-231 and in the assay on THP1 was over 30 µM each time.

For the compound `CN(C)C(=O)c1ccc(N2CCN(C3CC4(C3)CN(C(=O)[C@](O)(c3ccccc3)C(F)(F)F)C4)CC2)cc1Cl` (single isomer, unassigned) [Compound 1.17], the EC50 on LXR alpha worked out at 10.6 µM; at LXR beta it was 0.156 µM. The IC50 in the assay with A549 is over 30 µM; in the assay on HepG2, 22.6 µM; in the assay on MDA-MB-231, over 30 µM.

As for `CN(C)C(=O)c1ccc(N2CCC(N3CC4(CN(C(=O)[C@](O)(c5ccccc5)C(F)(F)F)C4)C3)CC2)cc1Cl` [Compound 1.55, 2-chloro-N,N-dimethyl-4-(4-(6-((R)-3,3,3-trifluoro-2-hydroxy-2-phenylpropanoyl)-2,6-diazaspiro[3.3]heptan-2-yl)piperidin-1-yl)benzamide], the EC50 at LXR beta came to 16.3 µM. Also, the IC50 in the assay on A549, in the assay on HCT116, in the assay with HepG2, in the assay with MCF7, in the assay on MDA-MB-231 and in the assay with THP1 was over 30 µM throughout.

For `CC(C)C(O)(C(=O)N1CCC(N2CC[C@@H](Nc3ccc(C(=O)N(C)C)c(Cl)c3)C2)CC1)C(F)(F)F` (stereo partly drawn) [Compound 1.58, 2-chloro-4-((3R)-1-(1-(2-hydroxy-3-methyl-2-(trifluoromethyl)butanoyl)piperidin-4-yl)pyrrolidin-3-ylamino)-N,N-dimethylbenzamide], the IC50 in the assay on A549, in the assay with HCT116, in the assay on HepG2, in the assay with MCF7, in the assay on MDA-MB-231 and in the assay with THP1 was over 30 µM each time.

For `CN(C)C(=O)c1ccc(-c2nnc(C3=CCN(S(=O)(=O)c4ccccc4Cl)CC3)s2)cc1Cl` [Compound 1.12, 2-chloro-4-(5-(1-(2-chlorophenylsulfonyl)-1,2,3,6-tetrahydropyridin-4-yl)-1,3,4-thiadiazol-2-yl)-N,N-dimethylbenzamide], the results for the EC50 on LXR alpha and on LXR beta were 4.1 µM and 0.211 µM, respectively. Besides, the concentration for half-maximal inhibition (IC50) was over 30 µM with A549, 14.6 µM with HepG2 and 15.3 µM in the assay on MDA-MB-231.

As for `O=C(N1CCC(C2CCN(c3cc(Cl)c4c(=O)[nH]ccc4c3)CC2)CC1)[C@](O)(c1ccccc1)C(F)(F)F` [Compound 1.19, (R)-8-chloro-6-(1′-(3,3,3-trifluoro-2-hydroxy-2-phenylpropanoyl)-4,4′-bipiperidin-1-yl)isoquinolin-1(2H)-one], the EC50 on LXR alpha is 0.41 µM; at LXR beta, 0.451 µM. Further, the IC50 in the assay with A549 is 6.9 µM; with HepG2, 3.7 µM; in the assay with MDA-MB-231, 7.2 µM.

`CN(C)C(=O)c1ccc(NC2CN(C3CCN(C(=O)C(F)(F)c4ccccc4Cl)CC3)C2)cc1Cl` [Compound 1.52, 2-chloro-4-(1-(1-(2-(2-chlorophenyl)-2,2-difluoroacetyl)piperidin-4-yl)azetidin-3-ylamino)-N,N-dimethylbenzamide]: the EC50 at LXR beta was 5.68 µM. In addition, the IC50 in the assay with A549, in the assay on HCT116, in the assay with HepG2, with MCF7, in the assay with MDA-MB-231 and with THP1 was over 30 µM in each case.

Regarding `CN(C)C(=O)c1ccc(-c2nnc(N3CCC4(CCN(S(=O)(=O)c5ccccc5Cl)CC4)C3)s2)cc1Cl` [Compound 1.50, 2-chloro-4-(5-(8-(2-chlorophenylsulfonyl)-2,8-diazaspiro[4.5]decan-2-yl)-1,3,4-thiadiazol-2-yl)-N,N-dimethylbenzamide], the IC50 in the assay on A549 turned out to be 14.4 µM; in the assay on HCT116, 15.4 µM; in the assay with HepG2, 23.8 µM; in the assay with MCF7, 14.5 µM; in the assay with MDA-MB-231, 17 µM; in the assay with THP1, 14.6 µM.

Take `CN(C)C(=O)c1ccc(-c2nnc(N3CC4(CCN(S(=O)(=O)c5ccccc5Cl)CC4)C3)s2)cc1Cl` [Compound 1.51, 2-chloro-4-(5-(7-(2-chlorophenylsulfonyl)-2,7-diazaspiro [3.5]nonan-2-yl)-1,3,4-thiadiazol-2-yl)-N,N-dimethylbenzamide]: the IC50 in the assay with A549 was 4.47 µM; in the assay with HCT116, 4.46 µM; with HepG2, over 29 µM; in the assay on MCF7, 4.18 µM; in the assay on MDA-MB-231, 5.44 µM; with THP1, 5.93 µM.

(Values after US20220363662A1, “COMPOUNDS AS LXR AGONISTS” (Integral Biosciences Privated Limited, priority 2021, published 2022).)
